Data as given in the supplement of paper PMC4862054.

test system: MDA-MB-231; experiment: normalised response (% of control), CellTiter-Glo; higher = more viable cells (100 = DMSO, 0 = benzethonium chloride kill control); settings: incubation time: 72 h
How it was run: (§1)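 Breast cancer cell lines were exposed for 72 h in 384-well plates to compound at 5 concentrations, 10-fold apart, covering a 10,000-fold range fixed for each compound. Plates were read for CellTox Green fluorescence and CellTiter-Glo luminescence and normalised to 0.1 % DMSO (100) and a positive kill control (0). Each value is the normalised signal at one concentration of the series.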

Row | SMILES | normalised response [%]
1 | CN(C)C(=N)NC(=N)N [Metformin] (1000 nM) | 94.1
2 | CN(Cc1cnc2nc(N)nc(N)c2n1)c1ccc(C(=O)N[C@@H](CCC(=O)O)C(=O)O)cc1 [Methotrexate] (500 nM) | 111
3 | Cc1cn(-c2cc(NC(=O)c3ccc(C)c(Nc4nccc(-c5cccnc5)n4)c3)cc(C(F)(F)F)c2)cn1 [Nilotinib] (100 nM) | 94.9
4 | CC[C@H](CO)Nc1nc(NCc2ccccc2)c2ncn(C(C)C)c2n1 [Seliciclib] (100 nM) | 99.8
5 | C=CCN(/C=C1/C(=O)O[C@H](COC)[C@@]2(C)C1=C(O)C(=O)C1=C2[C@H](OC(C)=O)C[C@]2(C)C(=O)CC[C@@H]12)CC=C [Sonolisib] (100 nM) | 107

test system: HCC1599; experiment: as above; settings: incubation time: 72 h
How it was run: as §1

Row | SMILES | normalised response [%]
6 | C/C(=C\c1csc(C)n1)[C@@H]1C[C@@H]2O[C@]2(C)CCC[C@H](C)[C@H](O)[C@@H](C)C(=O)C(C)(C)[C@@H](O)CC(=O)N1 [Ixabepilone] (10 nM) | 95.2
7 | CN(C)C(=N)NC(=N)N [Metformin] (1000 nM) | 95.9
8 | CN(Cc1cnc2nc(N)nc(N)c2n1)c1ccc(C(=O)N[C@@H](CCC(=O)O)C(=O)O)cc1 [Methotrexate] (500 nM) | 118
9 | Cc1cn(-c2cc(NC(=O)c3ccc(C)c(Nc4nccc(-c5cccnc5)n4)c3)cc(C(F)(F)F)c2)cn1 [Nilotinib] (100 nM) | 106
10 | CC[C@H](CO)Nc1nc(NCc2ccccc2)c2ncn(C(C)C)c2n1 [Seliciclib] (100 nM) | 110
11 | C=CCN(/C=C1/C(=O)O[C@H](COC)[C@@]2(C)C1=C(O)C(=O)C1=C2[C@H](OC(C)=O)C[C@]2(C)C(=O)CC[C@@H]12)CC=C [Sonolisib] (100 nM) | 104

test system: HCC1937; experiment: as above; settings: incubation time: 72 h
How it was run: as §1

Row | SMILES | normalised response [%]
12 | C/C(=C\c1csc(C)n1)[C@@H]1C[C@@H]2O[C@]2(C)CCC[C@H](C)[C@H](O)[C@@H](C)C(=O)C(C)(C)[C@@H](O)CC(=O)N1 [Ixabepilone] (10 nM) | 95.4
13 | CN(C)C(=N)NC(=N)N [Metformin] (1000 nM) | 93.2
14 | CN(Cc1cnc2nc(N)nc(N)c2n1)c1ccc(C(=O)N[C@@H](CCC(=O)O)C(=O)O)cc1 [Methotrexate] (500 nM) | 27.3
15 | Cc1cn(-c2cc(NC(=O)c3ccc(C)c(Nc4nccc(-c5cccnc5)n4)c3)cc(C(F)(F)F)c2)cn1 [Nilotinib] (100 nM) | 95.4
16 | CC[C@H](CO)Nc1nc(NCc2ccccc2)c2ncn(C(C)C)c2n1 [Seliciclib] (100 nM) | 94.2
17 | C=CCN(/C=C1/C(=O)O[C@H](COC)[C@@]2(C)C1=C(O)C(=O)C1=C2[C@H](OC(C)=O)C[C@]2(C)C(=O)CC[C@@H]12)CC=C [Sonolisib] (100 nM) | 99.7

test system: HDQ-P1; experiment: as above; settings: incubation time: 72 h
How it was run: as §1

Row | SMILES | normalised response [%]
18 | C/C(=C\c1csc(C)n1)[C@@H]1C[C@@H]2O[C@]2(C)CCC[C@H](C)[C@H](O)[C@@H](C)C(=O)C(C)(C)[C@@H](O)CC(=O)N1 [Ixabepilone] (10 nM) | 102
19 | CN(C)C(=N)NC(=N)N [Metformin] (1000 nM) | 98
20 | CN(Cc1cnc2nc(N)nc(N)c2n1)c1ccc(C(=O)N[C@@H](CCC(=O)O)C(=O)O)cc1 [Methotrexate] (500 nM) | 57
21 | Cc1cn(-c2cc(NC(=O)c3ccc(C)c(Nc4nccc(-c5cccnc5)n4)c3)cc(C(F)(F)F)c2)cn1 [Nilotinib] (100 nM) | 105
22 | CC[C@H](CO)Nc1nc(NCc2ccccc2)c2ncn(C(C)C)c2n1 [Seliciclib] (100 nM) | 101
23 | C=CCN(/C=C1/C(=O)O[C@H](COC)[C@@]2(C)C1=C(O)C(=O)C1=C2[C@H](OC(C)=O)C[C@]2(C)C(=O)CC[C@@H]12)CC=C [Sonolisib] (100 nM) | 102

test system: CAL-51; experiment: as above; settings: incubation time: 72 h
How it was run: as §1

Row | SMILES | normalised response [%]
24 | C/C(=C\c1csc(C)n1)[C@@H]1C[C@@H]2O[C@]2(C)CCC[C@H](C)[C@H](O)[C@@H](C)C(=O)C(C)(C)[C@@H](O)CC(=O)N1 [Ixabepilone] (10 nM) | 86
25 | CN(C)C(=N)NC(=N)N [Metformin] (1000 nM) | 65.9
26 | CN(Cc1cnc2nc(N)nc(N)c2n1)c1ccc(C(=O)N[C@@H](CCC(=O)O)C(=O)O)cc1 [Methotrexate] (500 nM) | 95.3
27 | Cc1cn(-c2cc(NC(=O)c3ccc(C)c(Nc4nccc(-c5cccnc5)n4)c3)cc(C(F)(F)F)c2)cn1 [Nilotinib] (100 nM) | 81.9
28 | CC[C@H](CO)Nc1nc(NCc2ccccc2)c2ncn(C(C)C)c2n1 [Seliciclib] (100 nM) | 101
29 | C=CCN(/C=C1/C(=O)O[C@H](COC)[C@@]2(C)C1=C(O)C(=O)C1=C2[C@H](OC(C)=O)C[C@]2(C)C(=O)CC[C@@H]12)CC=C [Sonolisib] (100 nM) | 85.2

test system: MDA-MB-468; experiment: as above; settings: incubation time: 72 h
How it was run: as §1

Row | SMILES | normalised response [%]
30 | C/C(=C\c1csc(C)n1)[C@@H]1C[C@@H]2O[C@]2(C)CCC[C@H](C)[C@H](O)[C@@H](C)C(=O)C(C)(C)[C@@H](O)CC(=O)N1 [Ixabepilone] (10 nM) | 93.7
31 | CN(C)C(=N)NC(=N)N [Metformin] (1000 nM) | 90.3
32 | CN(Cc1cnc2nc(N)nc(N)c2n1)c1ccc(C(=O)N[C@@H](CCC(=O)O)C(=O)O)cc1 [Methotrexate] (500 nM) | 101
33 | Cc1cn(-c2cc(NC(=O)c3ccc(C)c(Nc4nccc(-c5cccnc5)n4)c3)cc(C(F)(F)F)c2)cn1 [Nilotinib] (100 nM) | 103
34 | CC[C@H](CO)Nc1nc(NCc2ccccc2)c2ncn(C(C)C)c2n1 [Seliciclib] (100 nM) | 102
35 | C=CCN(/C=C1/C(=O)O[C@H](COC)[C@@]2(C)C1=C(O)C(=O)C1=C2[C@H](OC(C)=O)C[C@]2(C)C(=O)CC[C@@H]12)CC=C [Sonolisib] (100 nM) | 105

test system: CAL-148; experiment: as above; settings: incubation time: 72 h
How it was run: as §1

Row | SMILES | normalised response [%]
36 | C/C(=C\c1csc(C)n1)[C@@H]1C[C@@H]2O[C@]2(C)CCC[C@H](C)[C@H](O)[C@@H](C)C(=O)C(C)(C)[C@@H](O)CC(=O)N1 [Ixabepilone] (10 nM) | 102
37 | CN(C)C(=N)NC(=N)N [Metformin] (1000 nM) | 102
38 | CN(Cc1cnc2nc(N)nc(N)c2n1)c1ccc(C(=O)N[C@@H](CCC(=O)O)C(=O)O)cc1 [Methotrexate] (500 nM) | 106
39 | Cc1cn(-c2cc(NC(=O)c3ccc(C)c(Nc4nccc(-c5cccnc5)n4)c3)cc(C(F)(F)F)c2)cn1 [Nilotinib] (100 nM) | 106
40 | CC[C@H](CO)Nc1nc(NCc2ccccc2)c2ncn(C(C)C)c2n1 [Seliciclib] (100 nM) | 112
41 | C=CCN(/C=C1/C(=O)O[C@H](COC)[C@@]2(C)C1=C(O)C(=O)C1=C2[C@H](OC(C)=O)C[C@]2(C)C(=O)CC[C@@H]12)CC=C [Sonolisib] (100 nM) | 116

test system: MDA-MB-453; experiment: as above; settings: incubation time: 72 h
How it was run: as §1

Row | SMILES | normalised response [%]
42 | C/C(=C\c1csc(C)n1)[C@@H]1C[C@@H]2O[C@]2(C)CCC[C@H](C)[C@H](O)[C@@H](C)C(=O)C(C)(C)[C@@H](O)CC(=O)N1 [Ixabepilone] (10 nM) | 101
43 | CN(C)C(=N)NC(=N)N [Metformin] (1000 nM) | 84.3
44 | CN(Cc1cnc2nc(N)nc(N)c2n1)c1ccc(C(=O)N[C@@H](CCC(=O)O)C(=O)O)cc1 [Methotrexate] (500 nM) | 110
45 | Cc1cn(-c2cc(NC(=O)c3ccc(C)c(Nc4nccc(-c5cccnc5)n4)c3)cc(C(F)(F)F)c2)cn1 [Nilotinib] (100 nM) | 96.3
46 | CC[C@H](CO)Nc1nc(NCc2ccccc2)c2ncn(C(C)C)c2n1 [Seliciclib] (100 nM) | 114
47 | C=CCN(/C=C1/C(=O)O[C@H](COC)[C@@]2(C)C1=C(O)C(=O)C1=C2[C@H](OC(C)=O)C[C@]2(C)C(=O)CC[C@@H]12)CC=C [Sonolisib] (100 nM) | 102

test system: MCF-10A; experiment: as above; settings: incubation time: 72 h
How it was run: as §1

Row | SMILES | normalised response [%]
48 | C/C(=C\c1csc(C)n1)[C@@H]1C[C@@H]2O[C@]2(C)CCC[C@H](C)[C@H](O)[C@@H](C)C(=O)C(C)(C)[C@@H](O)CC(=O)N1 [Ixabepilone] (10 nM) | 108
49 | CN(C)C(=N)NC(=N)N [Metformin] (1000 nM) | 77
50 | CN(Cc1cnc2nc(N)nc(N)c2n1)c1ccc(C(=O)N[C@@H](CCC(=O)O)C(=O)O)cc1 [Methotrexate] (500 nM) | 104
51 | Cc1cn(-c2cc(NC(=O)c3ccc(C)c(Nc4nccc(-c5cccnc5)n4)c3)cc(C(F)(F)F)c2)cn1 [Nilotinib] (100 nM) | 104
52 | CC[C@H](CO)Nc1nc(NCc2ccccc2)c2ncn(C(C)C)c2n1 [Seliciclib] (100 nM) | 97.1
53 | C=CCN(/C=C1/C(=O)O[C@H](COC)[C@@]2(C)C1=C(O)C(=O)C1=C2[C@H](OC(C)=O)C[C@]2(C)C(=O)CC[C@@H]12)CC=C [Sonolisib] (100 nM) | 108

test system: SK-BR-3; experiment: as above; settings: incubation time: 72 h
How it was run: as §1

Row | SMILES | normalised response [%]
54 | C/C(=C\c1csc(C)n1)[C@@H]1C[C@@H]2O[C@]2(C)CCC[C@H](C)[C@H](O)[C@@H](C)C(=O)C(C)(C)[C@@H](O)CC(=O)N1 [Ixabepilone] (10 nM) | 113
55 | CN(C)C(=N)NC(=N)N [Metformin] (1000 nM) | 81.9
56 | CN(Cc1cnc2nc(N)nc(N)c2n1)c1ccc(C(=O)N[C@@H](CCC(=O)O)C(=O)O)cc1 [Methotrexate] (500 nM) | 108
